Values after ≈ are worked out from the molar mass of the structure shown. “Also recorded” adds a separate entry of the source. Read-outs that look alike come from different tables or passages of the source.
Columns and labels:
[1] = Water solubility; format: physicochemical; conditions: for solubility: water
[2] = cited from earlier work; for water solubility (in words): prior art
[3] = Viscosity of aqueous solutions; format: physicochemical; conditions: for Viscosity at 37° C.: injection solution (Example 14)
[4] = cited from earlier work
[5] = Osmolality of solutions; format: physicochemical; conditions: 37° C.
[6] = Osmotic pressure of solutions; format: physicochemical; conditions: for Osmotic Pressure: 37° C.
[7] = Solubility in organic solvents; format: physicochemical
[8] = Density of injection solution; format: physicochemical; conditions: injection solution (Example 14), in g/mL (unit assumed)
[9] = Stability (hydrolysis, aqueous solution); format: physicochemical
[10] = compared with METRIZAMIDE; cited from earlier work
[11] = prior art; cited from earlier work
[12] = at 20° C., Table 1, read-out: Solubility in Water
[13] = aqueous solution containing 300 mg I/ml, 20° C.
[14] = aqueous solution containing 300 mg I/ml, 37° C.
[15] = aqueous solution containing 400 mg I/ml, 20° C.
[16] = aqueous solution containing 400 mg I/ml, 37° C.
[17] = at 25° C., read-out: Water solubility

With `CC(O)C(=O)N(C)c1c(I)c(C(=O)NC(CO)CO)c(I)c(C(=O)NC(CO)CO)c1I` (racemic) [d,L-5-(N-methyl-α-hydroxypropionyl-amino)-2,4,6-triiodo-isophthalic-acid-bis-(1,3-dihydroxyisopropylamide] the “supersaturation of aqueous solutions” value [1] was “supersaturated” and the “water solubility (in words)” value [1] was “dissolves in water very readily”.

For `CC(O)C(=O)Nc1c(I)c(C(=O)NC(CO)CO)c(I)c(C(=O)NC(CO)CO)c1I` (racemic) [d,L-5-α-hydroxypropionylamino-2,4,6-triiodo-isophthalic-acid-bis-(1,3-dihydroxyisopropylamide)], the “water solubility (in words)” value [1] was “only limited solubility in water”.

For `CC(=O)Nc1c(I)c(C(=O)NCC(O)CO)c(I)c(C(=O)NCC(O)CO)c1I` (stereo not drawn) [5-acetylamino-2,4,6-triiodoisophthalic-acid-bis-(2,3-dihydroxypropylamide)], the water solubility ([2]; at 20°-40° C.) is listed as 1 % (w/v) and the “water solubility (in words)” value [2] is listed as “slightly water-soluble”.

Work on `CC(=O)Nc1c(I)c(C(=O)N[C@H]2C(O)O[C@H](CO)[C@@H](O)[C@@H]2O)c(I)c(N(C)C(C)=O)c1I` (stereo partly drawn) [C, 3-acetylamino-4-N-methyl-acetylamino-2,4,6-triiodobenzoylglucosamine, reference compound] yielded a solubility [1, 12] of roughly 800 mg/mL (≈ 1010 mM), a Viscosity [3, 13] of 11.7 cP and a Viscosity [3, 14] of 5.98 cP. For the same molecule, the Viscosity [3, 15] was 77.8 cP, the Viscosity [3, 16] was 26.9 cP and the “water solubility (in words)” value [2] was “readily water-soluble”. The “stability in aqueous solutions (in words)” value ([4]; prior art) was “relatively little stability in aqueous solutions”.

For `CN(C(=O)CO)c1c(I)c(C(=O)NCC(O)CO)c(I)c(C(=O)NCC(O)CO)c1I` (stereo not drawn) [Compound A, 5-(N-methyl-hydroxyacetylamino)-2,4,6-triiodo-isophthalic-acid-bis-(2,3-dihydroxypropylamide)], the “water solubility (in words)” value [1] was “comparatively particularly high water-solubility; also recorded: higher water solubility”, the “water solubility (in words)” value ([1]; listed as Example 9) was “very readily soluble” and the “water solubility (in words)” value ([1]; listed as Example 11) was “very soluble”. The solubility [1, 12] was greater than 1000 mg/mL, the solubility ([1]; read-out: solubility in water) was 3000 mg/mL (≈ 3860 mM) and the “viscosity of aqueous solutions (in words)” value [3] was “low viscosity; also recorded: appreciably lower viscosity”. It also gave a Viscosity [3, 13] of 7.55 cP, a Viscosity [3, 14] of 4.19 cP and a Viscosity [3, 15] of 22.0 cP. The Viscosity [3, 16] was 9.87 cP, the “Viscosity at 37° C.” value ([3]; 200 mg iodine/ml) was 1.87 cP and the “Viscosity at 37° C.” value ([3]; 300 mg iodine/ml) was 4.19 cP. The “Viscosity at 37° C.” value ([3]; 420 mg iodine/ml) was 20.03 cP, the Osmolality ([5]; 250 mg I/ml) was 452 mOsm/kg and the Osmolality ([5]; 300 mg I/ml) was 536 mOsm/kg. The Osmolality ([5]; 350 mg I/ml) was 628 mOsm/kg, the “Osmotic Pressure” value ([6]; 250 mg I/ml) was 11.52 atm and the “Osmotic Pressure” value ([6]; 300 mg I/ml) was 13.64 atm. The “Osmotic Pressure” value ([6]; 350 mg I/ml) was 15.98 atm, the “osmotic pressure (in words)” value ([6]; compared with IOPAMIDOL) was “less than that of IOPAMIDOL” and the “Solubility in ethanol (in words)” value [7] was “limited”. It also gave a Solubility in ethanol ([7]; ethanol at 25° C.) of 35 parts by volume, a Solubility in ethanol ([7]; ethanol at the boiling point) of 20 parts by volume and a solubility ([7]; methanol, organic solvent or mixture) of 1000 mg/mL (≈ 1290 mM). For the same molecule, the “solubility in methanol (in words)” value ([7]; methanol, listed as Example 9) was “very readily soluble”, the “solubility in methanol (in words)” value ([7]; methanol, listed as Example 11) was “very soluble” and the “Density at 37° C.” value ([8]; 200 mg iodine/ml) was 1.207. The “Density at 37° C.” value ([8]; 300 mg iodine/ml) was 1.316, the “Density at 37° C.” value ([8]; 420 mg iodine/ml) was 1.453 and the “stability (in words)” value [9] was “high stability”.

For `C[C@H](O)C(=O)Nc1c(I)c(C(=O)NC(CO)CO)c(I)c(C(=O)NC(CO)CO)c1I` [Compound B, L-5-α-hydroxypropionylamino-2,4,6-triiodo-isophthalic-acid-bis-(1,3-dihydroxyisopropylamide), reference compound], the water solubility ([1]; at 20° C., text) was 89.7 % w/v, the water solubility ([1]; at 20° C., listed as IOPAMIDOL) was 440 mg of iodine per ml and the Viscosity [3, 13] was 8.95 cP. It also gave a Viscosity [3, 14] of 4.70 cP, a Viscosity [3, 15] of 40.6 cP and a Viscosity [3, 16] of 16.1 cP. For the same molecule, the Osmolality ([5]; 250 mg I/ml) was 514 mOsm/kg, the Osmolality ([5]; 300 mg I/ml) was 619 mOsm/kg and the Osmolality ([5]; 350 mg I/ml) was 737 mOsm/kg. The “Osmotic Pressure” value ([6]; 250 mg I/ml) was 13.09 atm, the “Osmotic Pressure” value ([6]; 300 mg I/ml) was 15.76 atm and the “Osmotic Pressure” value ([6]; 350 mg I/ml) was 18.77 atm. The “viscosity of concentrated aqueous solutions (in words)” value [10] was “lower viscosity”, the “stability (in words)” value ([4]; compared with METRIZAMIDE) was “higher stability” and the “toxicity (in words)” value [11] was “very low”.

Molecule `C[C@H](O)C(=O)N(C)c1c(I)c(C(=O)NC(CO)CO)c(I)c(C(=O)NC(CO)CO)c1I` [Example 1, L-5-(N-methyl-α-hydroxypropionyl-amino)-2,4,6-triiodoisophthalic-acid-bis-(1,3-dihydroxyisopropylamide)] has a solubility [1, 17] of no less than 1000 mg/mL.

Molecule `CCCN(C(=O)[C@H](C)O)c1c(I)c(C(=O)NC(CO)CO)c(I)c(C(=O)NC(CO)CO)c1I` [Example 3] has a solubility [1, 17] of no less than 1000 mg/mL.

Work on `CCCCN(C(=O)[C@H](C)O)c1c(I)c(C(=O)NC(CO)CO)c(I)c(C(=O)NC(CO)CO)c1I` [Example 4, L-5-(N-butyl-α-hydroxypropionyl-amino)-2,4,6-triiodo-isophthalic-acid-bis-(1,3-dihydroxyisopropylamide)] yielded a solubility ([1]; temperature not stated, read-out: Water solubility) of no less than 1000 mg/mL.

In the case of `CN(C(=O)CO)c1c(I)c(C(=O)NCC2COC(C)(C)O2)c(I)c(C(=O)NCC2COC(C)(C)O2)c1I` (stereo not drawn) [Example 13(A), 5-(N-methyl-hydroxyacetyl-amino)-2,4,6-triiodo-isophthalic-acid-bis-(2,3-isopropylidenedihydroxypropylamide)], the “water solubility (in words)” value [1] is reported as “only slightly soluble in water”, the “solubility in chloroform (in words)” value ([7]; chloroform) is reported as “very soluble” and the “Solubility in ethanol (in words)” value [7] is reported as “very soluble”. For the same molecule, the “solubility in methanol (in words)” value ([7]; methanol) was “very soluble”.

For `C[C@H](O)C(=O)Nc1c(I)c(C(=O)NC(CO)CO)c(I)c(C(=O)NC(CO)CO)c1I` [IOPAMIDOL hydrate, reference compound], the water solubility ([1]; at 20° C.) was 307 mg of iodine per ml and the solubility ([1]; at 20° C., read-out: water solubility) was 627 mg/mL.

— patent US4352788A, “Derivatives of 2,4,6-triiodo-isophthalic acid, processes for their synthesis and X-ray contrasting materials containing these” (Bracco Industria Chimica S.p.A., priority 1979, dated 1982)
